Laboratory results reported in US20090062375A1, “METHODS AND COMPOSITIONS FOR THE TREATMENT OF VIRAL DISEASES” (priority 2005, published 2009).

Columns and labels:
[1] = tested on: MMP-9 secretion by DV-infected iDC; assay: Gelatin zymography of gelatinase (MMP-9) secretion by DV-infected iDC; format: cell-based, human; settings: 10 μM SB203580 pretreatment, DV exposure 16 hr, zymography (FIG. 5C)
Experimental: FIG. 5. Immature DC (A-C) or HUVEC (D-F) were infected or not with DV and cells were collected 30 min post infection. Cells lysate were separated on 12.5% SDS-PAGE under reducing conditions. Proteins were electrophoretically transferred onto nitrocellulose membrane. The membrane was probed with (A and E) antibodies to total and to specific phosphorylated forms of ERK1/ERK2 antibodies to total and (B, D) to specific phosphorylated forms of p38 kinase. Horseradish peroxidase-conjugated goat anti-rabbit IgG was used as secondary antibody. Immature DC (C) or HUVEC (F) were pretreated or not with 10 μM SB 203580 prior to exposure with DV for 16 hr at 37° C. Supernatants were collected, lyophilized and assayed by zymography. Data are representative of 3 independent experiments.
Immature dendritic cells 5×10^5 cells/well were exposed to DV2-16681 for 2 hr, at MOI of 1 pfu/cell, in serum free RPMI 1640. Five extensive washes were done to eliminate free virus. […] Supernatants of DV infected iDC were collected and assessed for their viral activity. […]
DV infected iDC (5×10^5 cells) were cultured and collected in several time periods. Gelatinase secretion of cell supernatants was determined by sodium dodecyl sulfate-polyacrylamide gel electrophoresis (SDS-PAGE) zymography by using a gelatin substrate, as previously described (Missé´et al., 2001). […]

HUVEC monolayers = assay: HUVEC monolayer permeability assay (FITC-dextran, Transwell); format: cell-based, human; settings: concentration not stated
Experimental: FIG. 6. Supernatant of DEN-V2 infected-iDC increase endothelial cell permeability in a MMP dependent fashion. Eighty percent confluent HUVEC were prepared on 24-well transwell polyethylene. (A) Either cell culture supernatants of uninfected iDC, DV-infected iDC, or recombinant TNF-α (20 ng/ml) were pre-treated or not with 20 nM SB-3CT for 24 hours before HUVEC exposure for 12 hours, HUVEC monolayer permeability was measured by using the FITC-Dextran detected with spectrofluorometer at an excitation wavelength of 485 nm and emission at 530 nm. […] Data are representative of 3 or 4 independent experiments.
FIG. 7. Supernatant of DEN-V2 infected-HUVEC increase endothelial cell permeability in a MMP-dependent fashion. IL-8 or TNF-α were used as controls. The induced permeability was inhibited as in experiment of FIG. 6 by SB-3CT.
Immature dendritic cells were cultured for 24 hr in serum-free RPMI 1640 conditioned medium. And then infected with DV, cells and supernatant were collected at different periods. […]
Permeability of HUVEC monolayers cultured on Transwell filters was assessed using FITC-labelled dextrans. […] The cells were removed and the absorbance of the FITC-dextran in the chamber was measured by spectrofluorometer (GENios-TECAN, Trappes, France) at an excitation wavelength of 485 nm and emission of 530 nm.

C[S+]([O-])c1ccc(-c2nc(-c3ccc(F)cc3)c(-c3ccncc3)[nH]2)cc1 (centres unmarked) [SB203580, 4-(4-Fluorophenyl)-2-(4-methylsulfinylphenyl)-5-(4-pyridyl)1H-imidazole]
increase in MMP-9 secretion by DV-infected iDC [1]: totally abolished | permeability of HUVEC increased by dengue virus-infected iDC supernatants (summary statement) (HUVEC monolayers): inhibited
